Measurements reported in the supplement of paper PMC10307832.

Assays:
Test in all cases: relative viability (nuclei count vs DMSO), 5 days (fraction); higher = more cells survive
Dasatinib + OSI-027 = compound: Cc1nc(Nc2ncc(C(=O)Nc3c(C)cccc3Cl)s2)cc(N2CCN(CCO)CC2)n1 [Dasatinib] + COc1cccc2cc(-c3nc([C@H]4CC[C@H](C(=O)O)CC4)n4ncnc(N)c34)[nH]c12 [OSI-027] (partner 0.5 µM)
Procedure, shortened: (§1)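 Medians of duplicate plates are given as relative viability. That measure is the nuclei count in treated wells divided by the count in vehicle wells. Counts were taken on 4× images of lung cancer cell lines in 1536-well plates, 5 days after pin-tool dosing the day after seeding with one drug alone or a fixed anchor-drug dose plus five library-drug doses (not always all listed) in √10 steps.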

XMD13-2 + OSI-027 = compound: C1CC1C(=O)NC2=NNC3=C2C=CC(=C3)C4=CC(=CC=C4)C(=O)NC5CC5 [XMD13-2] + COc1cccc2cc(-c3nc([C@H]4CC[C@H](C(=O)O)CC4)n4ncnc(N)c34)[nH]c12 [OSI-027] (partner 0.5 µM)
Procedure, shortened: as §1

XMD13-2 + Decitabine = compound: C1CC1C(=O)NC2=NNC3=C2C=CC(=C3)C4=CC(=CC=C4)C(=O)NC5CC5 [XMD13-2] + Nc1ncn([C@H]2C[C@H](O)[C@@H](CO)O2)c(=O)n1 [Decitabine] (partner 2 µM)
Procedure, shortened: as §1

ALW-II-49-7 + Pemetrexed = compound: Cc1ccc(C(=O)Nc2cccc(C(F)(F)F)c2)cc1Nc1cncc(C(N)=O)c1 [ALW-II-49-7] + Nc1nc2[nH]cc(CCc3ccc(C(=O)N[C@@H](CCC(=O)O)C(=O)O)cc3)c2c(=O)[nH]1 [Pemetrexed] (partner 0.2 µM)
Procedure, shortened: as §1

Cell Line	relative viability (Dasatinib + OSI-027; first compound 0.005 µM)	relative viability (Dasatinib + OSI-027; first compound 0.01581 µM)	relative viability (Dasatinib + OSI-027; first compound 0.05 µM)	relative viability (Dasatinib + OSI-027; first compound 0.1581 µM)	relative viability (Dasatinib + OSI-027; first compound 0.5 µM)	relative viability (XMD13-2 + OSI-027; first compound 0.05 µM)	relative viability (XMD13-2 + OSI-027; first compound 0.1581 µM)	relative viability (XMD13-2 + OSI-027; first compound 0.5 µM)	relative viability (XMD13-2 + OSI-027; first compound 1.581 µM)	relative viability (XMD13-2 + OSI-027; first compound 5 µM)	relative viability (XMD13-2 + Decitabine; first compound 0.05 µM)	relative viability (XMD13-2 + Decitabine; first compound 0.1581 µM)	relative viability (XMD13-2 + Decitabine; first compound 0.5 µM)	relative viability (XMD13-2 + Decitabine; first compound 1.581 µM)	relative viability (XMD13-2 + Decitabine; first compound 5 µM)	relative viability (ALW-II-49-7 + Pemetrexed; first compound 0.08 µM)	relative viability (ALW-II-49-7 + Pemetrexed; first compound 0.253 µM)	relative viability (ALW-II-49-7 + Pemetrexed; first compound 0.8 µM)	relative viability (ALW-II-49-7 + Pemetrexed; first compound 2.53 µM)	relative viability (ALW-II-49-7 + Pemetrexed; first compound 8 µM)
NCI-H2087	0.571	0.607	0.697	0.531	0.278	0.716	0.69	0.482	0.565	0.489	0.322	0.291	0.344	0.26	0.279	0.637	0.679	0.673	0.606	0.621
HOP-62	0.856	0.864	0.743	0.546	0.196	0.998	0.896	0.783	0.895	0.792	0.233	0.204	0.195	0.203	0.199	0.313	0.35	0.322	0.307	0.243
EKVX	0.66	0.508	0.546	0.355	0.123	0.832	0.68	0.78	0.682	0.863	0.395	0.32	0.419		0.307	0.396	0.323	0.405	0.336	0.414
EMC-BAC-2	0.315	0.264	0.259	0.192	0.152	0.394	0.4	0.383	0.366	0.358	1.09	0.967	0.997		0.878	0.448	0.455	0.409	0.456	0.403
HARA	0.339	0.4	0.375	0.156	0.0755	0.661	0.438	0.43	0.446	0.636	0.654	0.558	0.584	0.613	0.492	0.235	0.288	0.247	0.277	0.218
LU99A	0.296		0.264	0.232	0.216	0.312	0.273	0.264	0.302	0.29	0.97	0.881	0.945	0.857	0.808		0.19	0.163	0.172	0.184
NCI-H1944	0.365	0.404	0.284	0.179	0.174	0.499	0.395	0.362	0.471	0.43	0.438	0.436	0.493	0.474	0.482	0.6	0.597	0.611	0.582	0.537
